# Source: patent publication US20060069132A1, “Azolecarboxamide herbicides” (priority 2004, published 2006)
# How the values were obtained:
# velvetleaf = test: Test A pre-/postemergence herbicide test; assay type: in vivo, Abutilon theophrasti; details: for Velvetleaf plant response rating: Preemergence
# How it was run: (§1)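 Seeds sown in sandy loam received a preemergence directed soil spray of compound in non-phytotoxic solvent with surfactant; postemergence plants (2–10 cm, one- to two-leaf stage) were sprayed to runoff at the same time. After ~10 days in greenhouse, injury was rated visually versus untreated controls (0 = no effect, 100 = complete control).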
# yellow nutsedge = test: Test C pre-/postemergence herbicide test; assay type: in vivo, Cyperus esculentus; details: for Nutsedge, Yellow plant response rating: 500 g ai/ha
# How it was run: (§2)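 Seeds were planted and sprayed preemergence with test chemicals in a non-phytotoxic solvent mixture containing surfactant; postemergence treatments went onto plants 2 to 18 cm tall (1- to 4-leaf stage). After 12 to 14 days in a greenhouse, injury was rated visually against untreated controls on a 0–100 scale.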
# barnyardgrass = test: Test C flooded paddy test; assay type: in vivo, Echinochloa crus-galli; details: for Plant response rating, Barnyardgrass: visual rating after 12 to 14 days
# How it was run: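 Scoring by eye, 12–14 days post-treatment, greenhouse-held plants vs. controls; 0 no effect, 100 complete control. Sprayed at 1–4 leaves (2–18 cm); paddy barnyardgrass at 2 leaves, flooded.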
# lambsquarters = test: Test C pre-/postemergence herbicide test; assay type: in vivo, Chenopodium album; details: for Lambsquarters plant response rating: 500 g ai/ha
# How it was run: as §2
# woolly cupgrass = test: Test C pre-/postemergence herbicide test; assay type: in vivo, Eriochloa villosa; details: for Cupgrass, Woolly plant response rating: 500 g ai/ha
# How it was run: as §2
# corn = test: Test C pre-/postemergence herbicide test; assay type: in vivo, Zea mays; details: for Corn plant response rating: 500 g ai/ha
# How it was run: as §2
# goosegrass = test: Test C pre-/postemergence herbicide test; assay type: in vivo, Eleusine indica; details: for Goosegrass plant response rating: 500 g ai/ha
# How it was run: as §2
# Surinam grass = test: Test C pre-/postemergence herbicide test; assay type: in vivo, Urochloa decumbens; details: for Surinam Grass plant response rating: 500 g ai/ha
# How it was run: as §2
# [1] = system: smallflower umbrella sedge; test: Test C flooded paddy test; assay type: in vivo, Cyperus difformis; details: for Plant response rating, Sedge, Umbrella: visual rating after 12 to 14 days
# giant foxtail = test: Test A pre-/postemergence herbicide test; assay type: in vivo, Setaria faberi; details: for Plant response rating, Foxtail, Giant: Postemergence; for Foxtail, Giant plant response rating: Preemergence
# How it was run: as §1
# morningglory = test: Test C pre-/postemergence herbicide test; assay type: in vivo, Ipomoea coccinea; parameters: key to Plant response rating, Morningglory: 0 = no effect, 100 = complete control; details: for Morningglory plant response rating: 500 g ai/ha
# How it was run: as §2
# kochia = test: Test C pre-/postemergence herbicide test; assay type: in vivo, Kochia scoparia; details: for Kochia plant response rating: 500 g ai/ha
# How it was run: as §2
# pigweed = test: Test C pre-/postemergence herbicide test; assay type: in vivo, Amaranthus retroflexus; details: for Pigweed plant response rating: 500 g ai/ha
# How it was run: as §2
# soybean = test: Test C pre-/postemergence herbicide test; assay type: in vivo, Glycine max; details: for Soybean plant response rating: 500 g ai/ha
# How it was run: as §2
# [2] = 500 g ai/ha, visual rating, 0 to 100 scale (0 no effect, 100 complete control)
# [3] = 2000 g ai/ha, 0 to 100 scale, 0 no effect, 100 complete control
# [4] = 125 g ai/ha, scale 0 (no effect) to 100 (complete control), visual, 12 to 14 days, preemergence
# [5] = 250 g ai/ha, scale 0 to 100 (0 no effect, 100 complete control), visual, 12 to 14 days, preemergence
# [6] = Postemergence, 250 g ai/ha, scale 0 to 100, 0 no effect, 100 complete control
# [7] = Preemergence, scale 0 to 100, 0 no effect, 100 complete control
# [8] = postemergence, 62 g ai/ha, scale 0 to 100
# [9] = 62 g ai/ha, scale 0 to 100 (0 no effect, 100 complete control)
# [10] = 125 g ai/ha, scale of 0 to 100, 0 is no effect, 100 is complete control
# [11] = 250 g ai/ha, scale 0 to 100 (0 no effect, 100 complete control)
# [12] = 500 g ai/ha, scale 0 to 100 (0 no effect, 100 complete control)
# [13] = Postemergence, 125 g ai/ha, scale 0 to 100, 0 no effect, 100 complete control
structure (smiles),measurement,setting,value
C#CCNC(=O)c1cccc(NC(=O)c2cc(C(C)(C)C)nn2CC)c1 [Compound 47],"Plant response rating, Velvetleaf","velvetleaf; Postemergence, 2000 g ai/ha, 0 to 100 scale, 0 no effect, 100 complete control",40
same,Velvetleaf plant response rating,velvetleaf; [2],20
same,Velvetleaf plant response rating,velvetleaf; [3],95
same,"Plant response rating (0 = no effect, 100 = complete control), Nutsedge, Yellow","yellow nutsedge; 62 g ai/ha, preemergence",0
same,"Plant response rating, Nutsedge, Yellow",yellow nutsedge; [4],0
same,"Plant response rating, Nutsedge, Yellow",yellow nutsedge; [5],0
same,"Nutsedge, Yellow plant response rating","yellow nutsedge; Postemergence, scale 0 to 100",30
same,"Plant response rating, Nutsedge, Yellow",yellow nutsedge; [6],30
same,"Nutsedge, Yellow plant response rating",yellow nutsedge; [7],0
same,"Plant response rating, Nutsedge, Yellow",yellow nutsedge; [8],20
same,Barnyardgrass plant response rating,barnyardgrass; [9],0
same,Barnyardgrass plant response rating,barnyardgrass; [10],0
same,"Plant response rating, Barnyardgrass",barnyardgrass; [11],40
same,"Plant response rating, Barnyardgrass",barnyardgrass; [12],40
same,"Plant response rating (0 = no effect, 100 = complete control), Lambsquarters","lambsquarters; 62 g ai/ha, preemergence",100
same,"Plant response rating, Lambsquarters",lambsquarters; [4],100
same,"Plant response rating, Lambsquarters",lambsquarters; [5],100
same,Lambsquarters plant response rating,"lambsquarters; Postemergence, scale 0 to 100",100
same,"Plant response rating, Lambsquarters",lambsquarters; [6],100
same,Lambsquarters plant response rating,lambsquarters; [7],100
same,"Plant response rating, Lambsquarters",lambsquarters; [8],90
same,"Plant response rating (0 = no effect, 100 = complete control), Cupgrass, Woolly","woolly cupgrass; 62 g ai/ha, preemergence",10
same,"Plant response rating, Cupgrass, Woolly",woolly cupgrass; [4],10
same,"Plant response rating, Cupgrass, Woolly",woolly cupgrass; [5],60
same,"Cupgrass, Woolly plant response rating","woolly cupgrass; Postemergence, scale 0 to 100",80
same,"Plant response rating, Cupgrass, Woolly",woolly cupgrass; [13],60
same,"Plant response rating, Cupgrass, Woolly",woolly cupgrass; [6],70
same,"Cupgrass, Woolly plant response rating",woolly cupgrass; [7],80
same,"Plant response rating, Cupgrass, Woolly",woolly cupgrass; [8],60
same,"Plant response rating (0 = no effect, 100 = complete control), Corn","corn; 62 g ai/ha, preemergence",0
same,"Plant response rating, Corn",corn; [4],0
same,"Plant response rating, Corn",corn; [5],0
same,Corn plant response rating,"corn; Postemergence, scale 0 to 100",80
same,"Plant response rating, Corn",corn; [13],70
same,"Plant response rating, Corn",corn; [6],80
same,Corn plant response rating,corn; [7],10
same,"Plant response rating, Corn",corn; [8],70
same,"Plant response rating (0 = no effect, 100 = complete control), Goosegrass","goosegrass; 62 g ai/ha, preemergence",80
same,"Plant response rating, Goosegrass",goosegrass; [4],100
same,"Plant response rating, Goosegrass",goosegrass; [5],100
same,Goosegrass plant response rating,"goosegrass; Postemergence, scale 0 to 100",80
same,"Plant response rating, Goosegrass",goosegrass; [13],60
same,"Plant response rating, Goosegrass",goosegrass; [6],60
same,Goosegrass plant response rating,goosegrass; [7],100
same,"Plant response rating, Goosegrass",goosegrass; [8],50
same,"Plant response rating (0 = no effect, 100 = complete control), Surinam Grass","Surinam grass; 62 g ai/ha, preemergence",0
same,"Plant response rating, Surinam Grass",Surinam grass; [4],10
same,"Plant response rating, Surinam Grass",Surinam grass; [5],60
same,Surinam Grass plant response rating,"Surinam grass; Postemergence, scale 0 to 100",70
same,"Plant response rating, Surinam Grass",Surinam grass; [6],60
same,Surinam Grass plant response rating,Surinam grass; [7],80
same,"Plant response rating, Surinam Grass",Surinam grass; [8],30
same,"Sedge, Umbrella plant response rating",[1]; [9],30
same,"Sedge, Umbrella plant response rating",[1]; [10],70
same,"Plant response rating, Sedge, Umbrella",[1]; [11],80
same,"Plant response rating, Sedge, Umbrella",[1]; [12],80
same,"Plant response rating, Foxtail, Giant","giant foxtail; 500 g ai/ha, 0 to 100 scale, 0 no effect, 100 complete control",90
same,"Plant response rating, Foxtail, Giant",giant foxtail; [3],85
same,"Foxtail, Giant plant response rating",giant foxtail; [2],90
same,"Foxtail, Giant plant response rating",giant foxtail; [3],100
same,"Plant response rating (0 = no effect, 100 = complete control), Morningglory","morningglory; 62 g ai/ha, preemergence",0
same,"Plant response rating, Morningglory",morningglory; [4],0
same,"Plant response rating, Morningglory",morningglory; [5],90
same,Morningglory plant response rating,"morningglory; Postemergence, scale 0 to 100",90
same,"Plant response rating, Morningglory",morningglory; [6],70
same,Morningglory plant response rating,morningglory; [7],90
same,"Plant response rating, Morningglory",morningglory; [8],50
same,"Plant response rating (0 = no effect, 100 = complete control), Kochia","kochia; 62 g ai/ha, preemergence",10
same,"Plant response rating, Kochia",kochia; [4],10
same,"Plant response rating, Kochia",kochia; [5],10
same,Kochia plant response rating,"kochia; Postemergence, scale 0 to 100",100
same,"Plant response rating, Kochia",kochia; [13],100
same,"Plant response rating, Kochia",kochia; [6],100
same,Kochia plant response rating,kochia; [7],40
same,"Plant response rating, Kochia",kochia; [8],100
same,"Plant response rating (0 = no effect, 100 = complete control), Pigweed","pigweed; 62 g ai/ha, preemergence",100
same,"Plant response rating, Pigweed",pigweed; [4],100
same,"Plant response rating, Pigweed",pigweed; [5],100
same,Pigweed plant response rating,"pigweed; Postemergence, scale 0 to 100",100
same,"Plant response rating, Pigweed",pigweed; [6],100
same,Pigweed plant response rating,pigweed; [7],100
same,"Plant response rating, Pigweed",pigweed; [8],100
same,"Plant response rating (0 = no effect, 100 = complete control), Soybean","soybean; 62 g ai/ha, preemergence",0
same,"Plant response rating, Soybean",soybean; [4],0
same,"Plant response rating, Soybean",soybean; [5],10
same,Soybean plant response rating,"soybean; Postemergence, scale 0 to 100",100
same,"Plant response rating, Soybean",soybean; [6],100
same,Soybean plant response rating,soybean; [7],20
same,"Plant response rating, Soybean",soybean; [8],100
